Like-named read-outs stand apart in the source and are kept apart here.
What was measured:
Experiment in all cases: Glasshouse assay for herbicidal activity, pre-/post-emergence (percentage phytotoxicity)
Assay type in all cases: in vivo
[1] = tested on: Echinochloa crus-galli (ECHCG); conditions: Rate 250 g/ha, 100%=total damage, 0%=no damage; for pest or weed control at 250 g/ha: Echinochloa crus-galli
Procedure: (§1) Seeds of a variety of monocotyledonous and dicotyledonous test plants are sown in standard soil in pots. The plants are cultivated for one day (for pre-emergence) or for about 12 days (for post-emergence) under controlled conditions in a glasshouse (warm climate species at 24/18° C., cool climate species at 20/16° C., both at day/night; 16 hours light; 65% humidity). The test plants are then grown on, in a glasshouse (greenhouse) under controlled conditions (warm climate species at 24/18° C., cool climate species at 20/16° C., both at day/night; 16 hours light; 65% humidity) and are watered twice daily. 15 days after application of the test herbicide (15DAA) (for post-emergence), and 20 days after application of the test herbicide (20DAA) (for pre-emergence), the test plants are evaluated visually, and an assessed percentage phytotoxicity score is given for each herbicidal application on each plant species (with 100%=total damage to plant; 0%=no damage to plant). The plant species tested are as follows: Alopecurus myosuroides (ALOMY), Avena fatua (AVEFA), Lolium perenne (LOLPE), Echinochloa crus-galli (ECHCG).

[2] = tested on: Alopecurus myosuroides (ALOMY); conditions: Rate 250 g/ha, 100%=total damage, 0%=no damage; for pest or weed control at 250 g/ha: Alopecurus myosuroides
Procedure: as §1

Avena fatua (AVEFA) = conditions: Rate 250 g/ha, 100%=total damage, 0%=no damage; for pest or weed control at 250 g/ha: Avena fatua
Procedure: as §1

Lolium perenne (LOLPE) = conditions: Rate 250 g/ha, 100%=total damage, 0%=no damage; for pest or weed control at 250 g/ha: Lolium perenne
Procedure: as §1

[3] = post-emergence, 360 h, post-emergence, visual assessment 15 DAA, read-out: Post-emergence herbicidal activity (percentage phytotoxicity), ECHCG POST
[4] = pre-emergence, 480 h, pre-emergence, visual assessment 20 DAA, read-out: Pre-emergence herbicidal activity (percentage phytotoxicity), ECHCG PRE
[5] = 360 h, post-emergence, visual assessment 15 DAA, read-out: Post-emergence herbicidal activity (percentage phytotoxicity), ALOMY POST
[6] = 480 h, pre-emergence, visual assessment 20 DAA, read-out: Pre-emergence herbicidal activity (percentage phytotoxicity), ALOMY PRE
[7] = post-emergence, 360 h, post-emergence, visual assessment 15 DAA, read-out: Post-emergence herbicidal activity (percentage phytotoxicity), AVEFA POST
[8] = pre-emergence, 480 h, pre-emergence, visual assessment 20 DAA, read-out: Pre-emergence herbicidal activity (percentage phytotoxicity), AVEFA PRE
[9] = post-emergence, 360 h, post-emergence, visual assessment 15 DAA, read-out: Post-emergence herbicidal activity (percentage phytotoxicity), LOLPE POST
[10] = pre-emergence, 480 h, pre-emergence, visual assessment 20 DAA, read-out: Pre-emergence herbicidal activity (percentage phytotoxicity), LOLPE PRE
[11] = post-emergence, visual assessment 15 DAA
[12] = pre-emergence, visual assessment 20 DAA

SMILES | pest or weed control at 250 g/ha [1, 3] | pest or weed control at 250 g/ha [1, 4] | pest or weed control at 250 g/ha [2, 5] | pest or weed control at 250 g/ha [2, 6] | pest or weed control at 250 g/ha (Avena fatua (AVEFA); [7]) | pest or weed control at 250 g/ha (Avena fatua (AVEFA); [8]) | pest or weed control at 250 g/ha (Lolium perenne (LOLPE); [9]) | pest or weed control at 250 g/ha (Lolium perenne (LOLPE); [10]) | Post-emergence herbicidal activity (percentage phytotoxicity), ECHCG POST [1, 11] | Pre-emergence herbicidal activity (percentage phytotoxicity), ECHCG PRE [1, 12] | Post-emergence herbicidal activity (percentage phytotoxicity), ALOMY POST [2, 11] | Pre-emergence herbicidal activity (percentage phytotoxicity), ALOMY PRE [2, 12] | Post-emergence herbicidal activity (percentage phytotoxicity), AVEFA POST (Avena fatua (AVEFA); [11]) | Pre-emergence herbicidal activity (percentage phytotoxicity), AVEFA PRE (Avena fatua (AVEFA); [12]) | Post-emergence herbicidal activity (percentage phytotoxicity), LOLPE POST (Lolium perenne (LOLPE); [11]) | Pre-emergence herbicidal activity (percentage phytotoxicity), LOLPE PRE (Lolium perenne (LOLPE); [12])
Cc1cc(C)c(C2C(=O)CC(CCNc3ccc([N+](=O)[O-])cc3)C2=O)c(C)c1 (stereo not shown) [Compound A105] | 90% | 10% | 90% | 20% | 80% | 20% | 80% | 20% |  |  |  |  |  |  |  | 
C=Cc1cc(C)cc(C)c1C1C(=O)CC(CCNC(=O)C2=NOC(C)(C)C2)C1=O (racemic) [Compound A122, N-[2-[3-(2,4-dimethyl-6-vinyl-phenyl)-2,4-dioxo-cyclopentyl]ethyl]-5,5-dimethyl-4H-isoxazole-3-carboxamide] | 90% | 0% | 90% | 0% | 90% | 0% | 80% | 0% |  |  |  |  |  |  |  | 
Cc1cc(-c2ncc(F)cn2)cc(C)c1C1C(=O)CC(CCNc2ccc(C(F)(F)F)cn2)C1=O (stereo not shown) [Compound A120] | 100% | 90% | 90% | 90% | 100% | 90% | 90% | 90% |  |  |  |  |  |  |  | 
C#Cc1cc(C)cc(C)c1C1C(=O)CC(CCNC(=O)C2=NOC(C)(C)C2)C1=O (stereo not shown) [Compound A123, N-[2-[3-(2-ethynyl-4,6-dimethyl-phenyl)-2,4-dioxo-cyclopentyl]ethyl]-5,5-dimethyl-4H-isoxazole-3-carboxamide] | 100% | 20% | 100% | 70% | 100% | 50% | 80% | 90% |  |  |  |  |  |  |  | 
Cc1cc(C)c(C2C(=O)CC(CCNc3ccc(C#N)cn3)C2=O)c(C)c1 (stereo not shown) [Compound A107] | 100% | 100% | 100% | 90% | 100% | 90% | 100% | 100% |  |  |  |  |  |  |  | 
Cc1cc(C)c(C2C(=O)CC(CCNc3ncccc3C#N)C2=O)c(C)c1 (stereo not shown) [Compound A124] | 100% | 90% | 80% | 60% | 60% | 40% | 80% | 80% |  |  |  |  |  |  |  | 
Cc1cc(C)c(C2C(=O)CC(CCNC(=O)Nc3ccc(F)cn3)C2=O)c(C)c1.Cl (stereo not shown) [Compound A93] |  |  |  |  |  |  |  |  | 100% | 90% | 90% | 90% | 90% | 70% | 70% | 90%
Cc1cc(C)c(C2C(=O)CC(CCNc3ncc(C(F)(F)F)cc3F)C2=O)c(C)c1 (stereo not shown) [Compound A97] | 100% | 90% | 90% | 80% | 90% | 90% | 90% | 100% |  |  |  |  |  |  |  | 
